The conditions of data set [1]: from COc1c(Cl)cc(C(=O)O)cc1S(=O)(=O)Nc1cc(-c2ccccc2OCCO)c(F)cc1F; ester bond; 15-membered ring; 2,4,6-trichlorobenzoyl chloride/DIEA/DMAP; THF; 13.1 mM; 65.0 °C; 4.0 h.
Another data set concerns HepG2 cells. In words: Fatty acid synthesis (FAS) assay in HepG2 cells. Particulars: Homo sapiens, 1.5 h, 14C-citrate 50 μM, 90 min, read-out: FAS IC50 GMean. It counts as cell-based. The procedure: HepG2 cells were seeded into white clear-bottom 96-well plates (50,000/well) coated with collagen and incubated at 37° C. for 16-24 hours. Thereafter the plates were washed once with 100 μL PBS (+CaCl2+MgCl2) and 50 μL assay medium ([…] containing 11 mM glucose, 10 mM HEPES and 1 nM Insulin) per well was added. Test substances in assay medium were added (10 μL, 0.5% DMSO) and incubated for 20 min at 37° C. After that 10 μL assay medium containing ^14C-citrate (final concentration 50 μM) and PrestoBlue reagent (lx final concentration; ThermoFisher) were added and incubated for 90 min (37° C., 5% CO2). Cell viability was measured (Multiskan FC, microplate reader, absorbance 570 nm). Medium was removed by inverting the plate and cells were washed once with 100 μL ice-cold PBS. Cells were lysed with 50 μL lysis buffer (0.1 N NaOH, 0.1% Triton X-100) and plate was sealed with Tape Pads and vortexed. For the saponification reaction plates were incubated for 16-24 hours at 80° C. Seals were removed and 200 μL 0.1 N HCl was added for neutralisation of the pH. 150 μL from each well was transferred into the corresponding wells of a 96-well Flash plate (Perkin Elmer) and sealed with TopSeal A (Perkin Elmer). Plates were incubated for 4 h at 70° C., and for 1 h at room temperature in the dark. Signal of ^14C radioactivity was measured (TopCount). As a positive control 5 mM unlabelled citrate or C75 (Sigma, C5490) was applied.

In data set [2] the target is T1, ACLY (Homo sapiens (Human), UniProt P53396). In words: Human ACLY (hACLY) RF/MS activity assay. It counts as biochemical. Particulars: 1 nM hACLY; 30 min pre-incubation; 15 μM Coenzyme A, 50 μM ATP, 50 μM citrate; CoA to Acetyl-CoA by RF/MS; read-out: RFMS IC50 GMean. The method, boiled down: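 Reaction buffer was 50 mM Hepes pH 8.0, 10 mM MgCl2, 0.003% BSA, 0.01% Brij35, 50 mM NaCl, 4 mM DTT, with 1 nM hACLY and 1% DMSO; compounds (two-fold series from 10 μM) were pre-incubated 30 min at RT. Reaction with 15 μM CoA, 50 μM ATP, 50 μM citrate ran 30 min, formic-acid quenched; CoA and acetyl-CoA quantified by RF/MS as ratio.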

Data set [3] has as its target T1, ACLY. In words: InCell Pulse assay (permeate HEK293 cells, bind to and stabilize ACLY). It counts as cell-based. Particulars: HEK293 cells transfected with pICP-ACLY(FL)-ePL; 1 hour at 37° C., 55° C. heat pulse 10 minutes; read-out: InCell Pulse IC50 GMean. In short, it runs like this:
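HEK293 cells transiently expressing full-length ACLY-ePL were exposed in OptiMEM to 11-point, 3-fold compound dilutions for 1 h at 37 °C, heat-pulsed 10 min at 55 °C, then lysed for enzyme-fragment complementation luminescence. Four-parameter fit, normalised to 0.5% DMSO and 1 μM NDI-094311.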

For data set [4], the target named is Recombinant human ACLY full length protein (Homo sapiens (Human), UniProt P53396). In words: hACLY ADP-Glo activity assay. It counts as biochemical. Particulars: 0.5 nM ACLY; 15 μM sodium citrate, 1 μM coenzyme A, 80 μM ATP; ADP formed, luminescence; read-out: ADP-Glo IC50 GMean. The protocol: Compounds of the disclosure were evaluated for their efficacy in inhibiting hACLY using an ADP-Glo™ assays that measure ADP formed from the enzymatic activity of hACLY.
Test compounds were 3-fold serially diluted in DMSO over 11-point concentration range and dispensed onto a 384-well plate. Recombinant human ACLY full length protein was purified. Concentrations of ACLY protein, sodium citrate, coenzyme A, and ATP in the reaction were optimized for standardized homogenous enzyme assay using ADP-Glo™ Kinase (Promega Inc.). The assay measured ADP formed from the enzymatic reaction.
The reaction buffer consisted of the assay buffer (50 mM HEPES pH 8.0, 10 mM MgCl2, 4 mM 1,4-Dithiothreitol, 0.01% Brij® 35).
ACLY protein (0.5 nM) was added to the prepared reaction buffer, and the mixture was dispensed into the assay plate and incubated for 30 minutes at room temperature. Next, 15 μM sodium citrate, 1 μM coenzyme A, and 80 μM ATP were added into the assay plate and incubated for 60 minutes at room temperature. The final reaction volume for each well was 5 μL.
5 μL of ADP-Glo™ reagent was added, and the mixture was incubated for 40 minutes at room temperature. 10 μl ADP-Glo™ detection reagent was added, and the mixture was incubated for 30 minutes at room temperature. Luminescence was determined using EnVision microplate reader with ultra-luminescence module (Perkin Elmer Inc). Concentration-response curve-fitting and IC50 determination was performed using Xlfit Software (version 5.5.0) with a four-parameter logistic regression fit model.
A general note: ADP-Glo first removes unused ATP, then detects ADP through luciferase.

The structures appear in SMILES notation. pIC50: −log10 of the molar value. Where two headings read alike, the source gives them in different places.

Chain of Recombinant human ACLY full length protein (P53396 whole entry): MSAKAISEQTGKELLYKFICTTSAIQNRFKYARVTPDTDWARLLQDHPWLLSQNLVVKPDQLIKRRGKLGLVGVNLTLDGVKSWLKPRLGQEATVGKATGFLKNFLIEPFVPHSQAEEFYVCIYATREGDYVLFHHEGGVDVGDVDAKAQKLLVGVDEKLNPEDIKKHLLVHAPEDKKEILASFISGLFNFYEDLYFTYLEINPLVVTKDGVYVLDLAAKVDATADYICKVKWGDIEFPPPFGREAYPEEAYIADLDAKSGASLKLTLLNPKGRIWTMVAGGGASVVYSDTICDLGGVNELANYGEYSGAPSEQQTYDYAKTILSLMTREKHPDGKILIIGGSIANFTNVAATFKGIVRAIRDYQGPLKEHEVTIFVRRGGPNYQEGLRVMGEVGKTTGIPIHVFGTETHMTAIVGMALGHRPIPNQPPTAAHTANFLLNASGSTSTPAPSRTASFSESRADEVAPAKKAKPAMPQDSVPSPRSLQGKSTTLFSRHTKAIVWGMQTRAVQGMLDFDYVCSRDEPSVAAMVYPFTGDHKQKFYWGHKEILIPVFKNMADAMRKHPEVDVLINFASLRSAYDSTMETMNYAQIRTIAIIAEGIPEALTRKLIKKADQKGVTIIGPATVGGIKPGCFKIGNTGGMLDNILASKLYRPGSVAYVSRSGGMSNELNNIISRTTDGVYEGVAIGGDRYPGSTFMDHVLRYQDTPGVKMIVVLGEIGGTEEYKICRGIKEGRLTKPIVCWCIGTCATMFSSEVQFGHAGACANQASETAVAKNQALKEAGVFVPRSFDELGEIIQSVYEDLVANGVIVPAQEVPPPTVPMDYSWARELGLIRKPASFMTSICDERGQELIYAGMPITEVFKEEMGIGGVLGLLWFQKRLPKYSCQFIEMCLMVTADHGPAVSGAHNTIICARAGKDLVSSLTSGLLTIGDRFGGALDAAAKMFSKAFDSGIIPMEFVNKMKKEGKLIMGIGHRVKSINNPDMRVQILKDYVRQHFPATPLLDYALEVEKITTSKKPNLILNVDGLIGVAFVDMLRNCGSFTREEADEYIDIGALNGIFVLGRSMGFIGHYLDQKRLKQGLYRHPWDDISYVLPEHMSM
T1 sequence (P53396 whole entry): as above

`COc1c(Cl)cc2cc1S(=O)(=O)Nc1cc(c(F)cc1F)-c1ccccc1OCCOC2=O` displayed a ring closure, yield after HPLC in data set [1] of 18%.

In general, pIC50 refers to the IC50 on a negative log10 scale, so that one unit is a factor of ten. For `O=C1NCCOc2ccccc2-c2cc(c(F)cc2F)NS(=O)(=O)c2cc1cc(Cl)c2O` [Compound 2, 15-chloro-21,23-difluoro-16-hydroxy-8-oxa-18lambda6-thia-11,19-diazatetracyclo[18.3.1.1^13,17.0^2,7]pentacosa-1(24),2,4,6,13,15,17(25),20,22-nonaene-12,18,18-trione], the pIC50 with HepG2 cells is at most 4.30; on ACLY [2], 7.00 to 7.70; at ACLY [3], 4.30 to 6.00; in data set [4], 8.00 to 9.00.

Turning to `CN1c2cc(c(F)cc2F)-c2ccccc2OCCNC(=O)c2cc(Cl)c(O)c(c2)S1(=O)=O` [Compound 9, 15-chloro-21,23-difluoro-16-hydroxy-19-methyl-8-oxa-18lambda6-thia-11,19-diazatetracyclo[18.3.1.1^13,17.0^2,7]pentacosa-1(24),2,4,6,13,15,17(25),20,22-nonaene-12,18,18-trione], the pIC50 is at most 4.30 with HepG2 cells, at most 5.00 at ACLY [2], at most 4.30 on ACLY [3] and at most 6.00 in data set [4].

As for `O=C1NCCCOc2ccccc2-c2cc(c(F)cc2F)NS(=O)(=O)c2cc1cc(Cl)c2O` [Compound 6, 16-chloro-22,24-difluoro-17-hydroxy-8-oxa-19lambda6-thia-12,20-diazatetracyclo[19.3.1.1^14,18.0^2,7]hexacosa-1(25),2,4,6,14,16,18(26),21,23-nonaene-13,19,19-trione], the pIC50 in the data set with HepG2 cells is 4.30 to 5.00; on ACLY [2] it was 5.00 to 7.00; on ACLY [3], at most 4.30; in data set [4], 6.00 to 8.00.

Take `O=C1OCCOc2cc(Cl)ccc2-c2cc(c(F)cc2F)NS(=O)(=O)c2cc1cc(Cl)c2O` [Compound 18, 5,15-dichloro-21,23-difluoro-16-hydroxy-8,11-dioxa-18lambda6-thia-19-azatetracyclo[18.3.1.1^13,17.0^2,7]pentacosa-1(24),2,4,6,13,15,17(25),20,22-nonaene-12,18,18-trione]: the negative logarithm of the IC50 (pIC50) in the data set on HepG2 cells is 5.00 to 5.70; at ACLY [2], 7.00 to 7.70; on ACLY [3], 6.00 to 6.52; in data set [4], 8.00 to 9.00.

Turning to `C[C@H]1COc2ccccc2-c2cc(c(F)cc2F)NS(=O)(=O)c2cc(cc(Cl)c2O)C(=O)N1` [Compound 17, (10S)-15-chloro-21,23-difluoro-16-hydroxy-10-methyl-8-oxa-18lambda6-thia-11,19-diazatetracyclo[18.3.1.1^13,17.0^2,7]pentacosa-1(24),2,4,6,13,15,17(25),20,22-nonaene-12,18,18-trione], the pIC50 with HepG2 cells was at most 4.30; on ACLY [2] it was 5.00 to 7.00; on ACLY [3] it was at most 4.30; in data set [4] it was 6.00 to 8.00.

On to `CN1CCCc2ccccc2-c2cc(c(F)cc2F)NS(=O)(=O)c2cc(cc(Cl)c2O)C1=O` [Compound 10, 15-chloro-21,23-difluoro-16-hydroxy-11-methyl-18lambda6-thia-11,19-diazatetracyclo[18.3.1.1^13,17.0^2,7]pentacosa-1(24),2,4,6,13,15,17(25),20,22-nonaene-12,18,18-trione], for which the pIC50 in the data set on HepG2 cells is 5.00 to 5.70; at ACLY [2] it was 7.00 to 7.70; on ACLY [3] it was above 6.52; in data set [4], 8.00 to 9.00.

On to `O=C1OCCOc2ccccc2-c2cc(c(F)cc2F)NS(=O)(=O)c2cc1cc(Cl)c2O` [Compound 7, 15-chloro-21,23-difluoro-16-hydroxy-8,11-dioxa-18lambda6-thia-19-azatetracyclo[18.3.1.1^13,170^2,7]pentacosa-1(24),2,4,6,13,15,17(25),20,22-nonaene-12,18,18-trione], for which the negative logarithm of the IC50 (pIC50) in the data set on HepG2 cells was above 5.70.

As for `CN1CCOc2ccccc2-c2cc(c(F)cc2F)NS(=O)(=O)c2cc(cc(Cl)c2O)C1=O` [Compound 4, 15-chloro-21,23-difluoro-16-hydroxy-11-methyl-8-oxa-18lambda6-thia-11,19-diazatetracyclo[18.3.1.1^13,17.0^2,7]pentacosa-1(24),2,4,6,13,15,17(25),20,22-nonaene-12,18,18-trione], the pIC50 was 4.30 to 5.00 in the data set with HepG2 cells, 7.00 to 7.70 at ACLY [2], 4.30 to 6.00 at ACLY [3] and 8.00 to 9.00 in data set [4].

For the compound `O=C1NCCCc2ccccc2-c2cc(c(F)cc2F)NS(=O)(=O)c2cc1cc(Cl)c2O` [Compound 8, 15-chloro-21,23-difluoro-16-hydroxy-18lambda6-thia-11,19-diazatetracyclo[18.3.1.1^13,17.0^2,7]pentacosa-1(24),2,4,6,13,15,17(25),20,22-nonaene-12,18,18-trione], the pIC50 in the data set on HepG2 cells is 4.30 to 5.00; on ACLY [2], 7.00 to 7.70; on ACLY [3], 6.00 to 6.52; in data set [4], 8.00 to 9.00.

Regarding `O=C1OCCCc2ccccc2-c2cc(c(F)cc2F)NS(=O)(=O)c2cc1cc(Cl)c2O` [Compound 16, 15-chloro-21,23-difluoro-16-hydroxy-11-oxa-18lambda6-thia-19-azatetracyclo[18.3.1.1^13,17.0^2,7]pentacosa-1(24),2,4,6,13,15,17(25),20,22-nonaene-12,18,18-trione], the negative-log IC50 (pIC50) with HepG2 cells is above 5.70; at ACLY [2], 7.00 to 7.70; on ACLY [3], above 6.52; in data set [4] it was above 9.00.

With `COc1c(Cl)cc2cc1S(=O)(=O)Nc1cc(ccc1F)-c1ccccc1CCCOC2`, the ring closure, isolated yield (from COc1c(Cl)cc(CBr)cc1S(=O)(=O)Nc1cc(-c2ccccc2CCCO)ccc1F, ether bond, 15-membered ring, NaH, THF, 13.0 mM, 50.0 °C, 2.0 h) was 46%.

For `COc1c(Cl)cc2cc1S(=O)(=O)Nc1cc(c(F)cc1F)-c1ccccc1OCCNC2=O` [Compound 1, 15-chloro-21,23-difluoro-16-methoxy-8-oxa-18lambda6-thia-11,19-diazatetracyclo[18.3.1.1^13,17.0^2,7]pentacosa-1(24),2,4,6,13,15,17(25),20,22-nonaene-12,18,18-trione], for the setting “amide bond, 15-membered ring, T3P/DIPEA, EtOAc/DMF, 4.9 mM”, the ring closure, isolated yield worked out at 72%. The pIC50 in data set [4] is at most 6.00.

With `COc1c(Cl)cc2cc1S(=O)(=O)Nc1cc(ccc1F)-c1ccccc1CCOC2`, the ring closure, isolated yield (from COc1c(Cl)cc(CBr)cc1S(=O)(=O)Nc1cc(-c2ccccc2CCO)ccc1F, ether bond, 14-membered ring, NaH, THF, 12.7 mM, 50.0 °C, 2.5 h) amounted to 78%.

As to `COc1c(Cl)cc2cc1S(=O)(=O)Nc1cc(c(F)cc1F)-c1ccccc1N1CC(COC2=O)C1`, under “from 3-chloro-5-[[2,4-difluoro-5-[2-[3-(hydroxymethyl)229azetidine-1-yl]phenyl]phenyl]sulfamoyl]-4-methoxybenzoic acid, ester bond, 16-membered ring, DCC/DMAP, DCM, 25.0 mM”, the ring closure, isolated yield is 60%.
